The source of these data is US8450317B2, “CXCR3 receptor antagonists” (Boehringer Ingelheim International GmbH, priority 2009, dated 2013).

As usually defined, the IC50 is the point on the concentration scale where inhibition reaches its midpoint.

Sequence of CXCR3 (A0A2K5UV19 entry or part of it): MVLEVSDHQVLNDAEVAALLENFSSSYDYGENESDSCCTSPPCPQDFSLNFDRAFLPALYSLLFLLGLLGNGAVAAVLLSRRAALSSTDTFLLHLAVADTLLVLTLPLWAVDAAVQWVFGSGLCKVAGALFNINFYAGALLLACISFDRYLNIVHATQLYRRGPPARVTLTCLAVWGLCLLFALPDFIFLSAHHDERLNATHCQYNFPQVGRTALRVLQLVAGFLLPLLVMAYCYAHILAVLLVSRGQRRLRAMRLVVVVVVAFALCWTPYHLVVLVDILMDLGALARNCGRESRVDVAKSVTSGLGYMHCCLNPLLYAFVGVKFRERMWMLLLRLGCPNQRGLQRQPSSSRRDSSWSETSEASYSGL

The assay addresses CXCR3 (Macaca fascicularis, UniProt A0A2K5UV19). The experiment in a line: functional cellular assay measuring calcium flux in CXCR3 transfected cells (block of CXCR3/IP-10 interaction). The format is cell-based, Cyno. The note with it: IP-10 induced intracellular calcium flux; Cyno-CHO cells stably expressing recombinant CXCR3 and G-alpha-16; IP-10 at EC80; read-out: IC50. An outline of the steps:
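Inhibition of IP-10-induced calcium flux at 10 microM final compound, 15 min room-temperature preincubation, with IP-10 at EC80. Cells: CHO stably transfected with cynomolgus CXCR3 plus G-alpha-16, dye-loaded (Ca-4, 2 mM probenecid, HBSS/HEPES pH 7.4) 1 h at 37° C.; fluorescence ex 480/em 540 nm.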
For orientation: A change in cytosolic calcium serves as a functional read-out for many receptors and channels.
With `COc1ccc(N2CCN(C(=O)Cn3ccc4cccnc43)CC2)c(-c2cnc(N3CCOCC3)nc2)c1` [1-{4-[4-Methoxy-2-(2-morpholin-4-yl-pyrimidin-5-yl)-phenyl]-piperazin-1-yl}-2-pyrrolo[2,3-b]pyridin-1-yl-ethanone], the IC50 was determined as 9 nM.

As to `Cc1cc(C)n(CC(=O)N2CCN(c3ccc(C(F)(F)F)cc3-c3cnc(N4CCC(S(C)(=O)=O)CC4)nc3)CC2C)n1` (stereo not shown) [2-(3,5-dimethyl-1H-pyrazol-1-yl)-1-{2-methyl-4-[2-{2-[4-(methylsulfonyl)piperidin-1-yl]pyrimidin-5-yl}-4-(trifluoromethyl)phenyl]piperazin-1-yl}ethanone], the IC50 is 7 nM.

Regarding `Cc1cc(C)n(CC(=O)N2CCN(c3ccccc3-c3ccc(C#N)cc3)CC2)n1` [2′-{4-[2-(3,5-Dimethyl-pyrazol-1-yl)-acetyl]-piperazin-1-yl}-biphenyl-4-carbonitrile], the IC50 came to 100 nM.

As to `CC1CN(c2ccccc2-c2cnc(N3CCC(S(C)(=O)=O)CC3)nc2)CCN1C(=O)Cn1ccc2cccnc21` (stereo not shown) [1-[2-methyl-4-(2-{2-[4-(methylsulfonyl)piperidin-1-yl]pyrimidin-5-yl}phenyl)piperazin-1-yl]-2-(1H-pyrrolo[2,3-b]pyridin-1-yl)ethanone], the half-maximal inhibitory concentration (IC50) was 9 nM.

Consider `O=C(CNc1nccs1)N1CCN(c2ccccc2-c2cnc(N3CCOCC3)nc2)CC1` [1-{4-[2-(2-Morpholin-4-yl-pyrimidin-5-yl)-phenyl]-piperazin-1-yl}-2-(thiazol-2-ylamino)-ethanone], for which the IC50 was found to be 35 nM.

As to `CC1CN(c2ccccc2-c2cnc(S(C)(=O)=O)nc2)CCN1C(=O)Cn1ccc2cccnc21` (stereo not shown) [1-(2-methyl-4-{2-[2-(methylsulfonyl)pyrimidin-5-yl]phenyl}piperazin-1-yl)-2-(1H-pyrrolo[2,3-b]pyridin-1-yl)ethanone], the IC50 worked out at 27 nM.

On to `C[C@@H]1CN(c2ncc(-c3ccccc3N3CCN(C(=O)Cn4ccc5cccnc54)CC3)cn2)C[C@@H](C)O1` [1-(4-{2-[2-((2R,6R)-2,6-Dimethyl-morpholin-4-yl)-pyrimidin-5-yl]-phenyl}-piperazin-1-yl)-2-pyrrolo[2,3-b]pyridin-1-yl-ethanone], for which the IC50 came out at 7 nM.

Consider `O=C(CN1CCCCC1=O)N1CCN(c2ccc(F)cc2-c2cnc(N3CCOCC3)nc2)CC1` [1-[2-(4-{4-fluoro-2-[2-(morpholin-4-yl)pyrimidin-5-yl]phenyl}piperazin-1-yl)-2-oxoethyl]piperidin-2-one], for which the IC50 worked out at 30 nM.

With `CS(=O)(=O)C1CCN(c2ncc(-c3cc(F)ccc3N3CCN(C(=O)CN4Cc5ccccc5C4=O)CC3)cn2)CC1` [2-{2-[4-(4-fluoro-2-{2-[4-(methylsulfonyl)piperidin-1-yl]pyrimidin-5-yl}phenyl)piperazin-1-yl]-2-oxoethyl}-2,3-dihydro-1H-isoindol-1-one], the IC50 came out at 9 nM.

Turning to `COc1cc(NC(=O)c2cc(F)ccc2N2CCN(C(=O)CN3CCCCC3=O)[C@@H](C)C2)ccn1` [5-fluoro-N-(2-methoxypyridin-4-yl)-2-{(3S)-3-methyl-4-[(2-oxopiperidin-1-yl)acetyl]piperazin-1-yl}benzamide], the IC50 came out at 8 nM.

`C[C@@H]1CN(c2ccc(F)cc2C(=O)Nc2nc3c(s2)CN(C)CC3)CCN1C(=O)Cn1ccc2cccnc21` [5-fluoro-2-[(3R)-3-methyl-4-(1H-pyrrolo[2,3-b]pyridin-1-ylacetyl)piperazin-1-yl]-N-(5-methyl-4,5,6,7-tetrahydro[1,3]thiazolo[5,4-c]pyridin-2-yl)benzamide]: the IC50 was 20 nM.

As to `COc1ccc(C(=O)NCC(=O)N2CCN(c3ccccc3-c3cnc(N4CCOCC4)nc3)CC2)cc1OC` [3,4-Dimethoxy-N-(2-{4-[2-(2-morpholin-4-yl-pyrimidin-5-yl)-phenyl]-piperazin-1-yl}-2-oxo-ethyl)-benzamide], the IC50 worked out at 68 nM.

For the compound `CSc1ncc(-c2cc(C#N)ccc2N2CCN(C(=O)Cn3ccc4cccnc43)CC2)cn1` [3-(2-Methylsulfanyl-pyrimidin-5-yl)-4-[4-(2-pyrrolo[2,3-b]pyridin-1-yl-acetyl)-piperazin-1-yl]-benzonitrile], the IC50 was 4 nM.
